Measured values as given in patent US12558368B2, “Compositions and devices for systemic delivery of uridine” (PHARMA CINQ, LLC, priority 2018, dated 2026).

Key:
[1] = Pharmacokinetics of plasma uridine and D-BHB after subcutaneous administration; assay type: in vivo, Female CD-1 mice; conditions: mice
Method: Groups of 8 mice (Female CD-1 mice, approximately 16 weeks old) were treated with subcutaneous uridine or uridine plus Na(D-BHB) as indicated in the table below. D-BHB was administered as the water soluble sodium salt Na(D-BHB) (Toronto Research Chemicals, catalog #H833025
• 1. Group 1 (200 mg/kg Uridine+Na(D-BHB) received 10 mg/ml uridine and 49.26 mg/ml Na(D-BHB) (0.02 ml/g bw). • 2. Group 2 (300 mg/kg Uridine+Na(D-BHB) received 15 mg/ml uridine and 49.26 mg/ml Na(D-BHB) (0.02 ml/g bw). • 3. Group 3 (400 mg/kg Uridine+Na(D-BHB) received 20 mg/ml uridine and 49.26 mg/ml Na(D-BHB) (0.02 ml/g bw). • 4. Group 4 (400 mg/kg Uridine) received 20 mg/ml uridine (0.02 ml/g bw).
Blood samples were obtained from the retro-orbital plexus at time points of 15, 30, 60 and 120 minutes after drug injection. Two blood samples (<200 microliters) were collected from each mouse into heparinized polyethylene tubes, with 4 mice bled at 15 and 60 minutes, and the other 4 mice in a group were bled at 30 and 120 minutes. Plasma samples were obtained by centrifugation, and were deproteinized and analyzed for uridine and uracil by an LC/MS method. Plasma D-BHB was measured in the same samples by a commercial enzymatic color-change assay.
Rodents degrade uridine to uracil more rapidly and extensively than do humans, who have lower activities of the enzyme uridine phosphorylase. Therefore, it is important to take into account plasma uracil concentrations in rodents for optimum translation of rodent pharmacokinetic results to the human situation. The sum of uridine+uracil in rodents is a better reflection of plasma uridine equivalents than is uridine alone for translation to other animal models or to human dosing.

[2] = system: mortality caused by 3-nitropropionic acid (inhibitor of Complex II of the mitochondrial respiratory chain); assay: Protection against mortality caused by 3-nitropropionic acid at 65 or 70 mg/kg/day (Example 3; uridine, Na(D-BHB)); assay type: in vivo, Female CD-1 mice; conditions: s.c. uridine 200 mg/kg t.i.d. and/or Na(D-BHB) 985 mg/kg t.i.d.; for % Survival: end of study, 10 mice per group
Excerpt: Subcutaneous administration of therapeutic agents is a suitable route of administration for emergency drugs that are intended to be used in people with traumatic brain injury, stroke or asphyxia, where the patient may not be capable of ingesting oral medications or may be in a situation where it is difficult to place an intravenous catheter. Subcutaneous drug administration is practical, but the composition must conform to volumes and osmolality values that are known to be compatible with this route of administration; excessively high osmolality can cause local edema, and volumes must be low enough for injection without problematic back pressure. Compositions comprising uridine, sodium beta-hydroxybutyrate and a combination of the two, with the osmolality restricted to a maximum of 800 milliosmoles/liter (a value known to be acceptable for subcutaneous fluid administration) were tested in a model of whole-body energy failure induced by daily intraperitoneal injections of 3-nitropropionic acid at two dose levels, 65 mg/kg/day and 70 mg/kg/day.
Survival times (median survival; the time point at which 50% of animals in a group had died) and percent survival at the end of a 13 day study were used to quantify and compare protective effects of the test agents.
Female CD-1 mice at approximately 16 weeks of age were divided into weight-matched groups of 10 mice each. All mice received daily intraperitoneal injections of 3-NP (65 mg/kg or 70 mg/kg) in a volume of 0.01 ml per gram of body weight at 5 PM.
(§1) The therapeutic treatments were administered by subcutaneous injection in a volume of 0.02 ml/gram of body weight three times per day, at 7 AM and 12 PM and 4 PM. 3-NP was administered at 5 PM on each of the consecutive days of the experiment. Body weights were recorded each day to adjust drug doses as mice lost weight during repeated treatment with 3-NP. D-BHB was administered as the water soluble sodium salt Na(D-BHB) (Toronto Research Chemicals, catalog #H833025.
1. Vehicle Control—0.9% saline t.i.d.
2. Uridine 200 mg/kg t.i.d.
3. Na(D-BHB) 985 mg/kg t.i.d.
4. Uridine 200 mg/kg+Na(D-BHB) 985 mg/kg t.i.d.

[3] = system: mortality caused by 3-nitropropionic acid (inhibitor of Complex II of the mitochondrial respiratory chain); assay: Protection against mortality caused by 3-nitropropionic acid (Example 2; uridine, Na(DL-BHB), Na(D-BHB)); assay type: in vivo, Female CD-1 mice; conditions: 3-NP 60 mg/kg/day i.p., s.c. uridine 200 mg/kg t.i.d. and/or Na(DL-BHB) or Na(D-BHB) 328 mg/kg t.i.d.; for Median Survival: 12 day study; for % Survival: end of 12 day study, 10 mice per group
Method: Mitochondrial dysfunction was produced by daily administration of 3-nitropropionic acid (60 mg/kg/day) by intraperitoneal injection. Groups of mice also received saline (control), uridine, DL-BHB, D-BHB, and combinations of uridine and D-BHB and DL-BHB as indicated below. Both D- and DL-BHB were administered as the water soluble sodium salts: Na(D-BHB) (Toronto Research Chemicals, catalog #H833025) and Na(DL-BHB) (VWR International, catalog #200012-200).
• 1. Vehicle Control—0.9% saline b.i.d. • 2. Uridine 200 mg/kg t.i.d. • 3. Na (DL-BHB) 328 mg/kg t.i.d. • 4. Na (D-BHB) 328 mg/kg t.i.d. • 5. Uridine 200 mg/kg+Na (DL-BHB) 328 mg/kg t.i.d. • 6. Uridine 200 mg/kg+Na (D-BHB) 328 mg/kg t.i.d.
Survival times (median survival; the time point at which 50% of animals in a group had died) and percent survival at the end of the 12 day study were used to quantify and compare protective effects of the test agents.
Female CD-1 mice at approximately 16 weeks of age were divided into weight-matched groups of 10 mice each. All mice received daily intraperitoneal injections of 3-NP (60 mg/kg) in a volume of 0.01 ml per gram of body weight at 5 PM.
as §1, with “0.01” for “0.02”, “Body weight” for “D-BHB”, “graphed for” for “administered as”, “various groups of mice until the group size decreased below 3.” for “water soluble sodium salt Na(D-BHB) (Toronto Research Chemicals, catalog #H833025.”

[4] = humans, cited from earlier work
[5] = system: mortality caused by 3-nitropropionic acid (inhibitor of Complex II of the mitochondrial respiratory chain); assay: Protection against mortality caused by 3-nitropropionic acid (Example 1; uridine and MgBHB); assay type: in vivo, Female CD-1 mice; conditions: 3-NP 60 mg/kg/day i.p., s.c. uridine 300 mg/kg b.i.d. and/or MgBHB 300 mg/kg b.i.d.; for Median Survival: 13 day study; for % Survival: end of 13 day study, 10 mice per group
Excerpt: 3-nitropropionic acid (3-NP) is an inhibitor of Complex II of the mitochondrial respiratory chain. Administration of 3-NP to experimental animals has been used as a model for mitochondrial diseases, Huntington's disease and pathological consequences of hypoxia. Daily dosing with 3-NP causes energy failure in the brain, heart and other tissues, resulting in mortality after several days. A 3-NP dosing regimen that caused 100% mortality in mice after approximately one week was selected for further evaluation of mortality, which is indicative of neuroprotective and cardioprotective effects, of compositions of the invention in a model of disorders caused by mitochondrial dysfunction. Survival times (median survival; the time point at which 50% of animals in a group had died) and percent survival at the end of the 13 day study were used to quantify protective effects of the test agents.
Female CD-1 mice at approximately 16 weeks of age were divided into weight-matched groups of 10 mice each. All mice received daily intraperitoneal injections of 3-NP (60 mg/kg) in a volume of 0.01 ml per gram of body weight. 3-NP was administered at 2 PM on each of the 13 consecutive days of the experiment. Body weights were recorded each day to adjust drug doses as mice lost weight during repeated treatment with 3-NP.
The comparative efficacy of uridine (VWR International) and the magnesium salt of racemic beta-hydroxybutyrate (magnesium β-hydroxybutyrate trihydrate; MgBHB·3H2O) (Nutra Planet) were assessed, as was the efficacy of a combination of uridine and MgBHB. All of the therapeutic treatments were administered by subcutaneous injection in a volume of 0.02 ml/gram of body weight twice per day, at 7 AM and 1 PM.
• 1. Vehicle Control—0.9% saline b.i.d. • 2. Uridine 300 mg/kg b.i.d. • 3. MgBHB 300 mg/kg b.i.d.

[6] = s.c. Na(D-BHB) 985.1 mg/kg with uridine

For `C[C@@H](O)CC(=O)[O-].[Na+]` [Na (D-BHB)], the “Maximum D-BHB concentration in plasma” value [1, 6] was “approximately 3 millimolar”, the “Tmax of plasma D-BHB” value [1, 6] was 15 min and the “Median Survival” value ([2]; 3-NP 65 mg/kg/day i.p.) was 10.5 days. The “% Survival” value ([2]; 3-NP 65 mg/kg/day i.p.) was 40% (4/10), the “Median Survival” value ([2]; 3-NP 70 mg/kg/day i.p.) was 6 days and the “% Survival” value ([2]; 3-NP 70 mg/kg/day i.p.) was 0% (0/10). The “Median Survival” value [3] was 7.5 days, the “Median Survival” value ([3]; listed as Na(D-BHB)) was 8 days and the “% Survival” value [3] was 10% (1/10). For the same compound, the “% Survival” value ([3]; listed as Na(D-BHB)) was 10%.
In the case of `CC(O)CC(=O)[O-].[Na+]` (racemic) [Na (DL-BHB)], the “Median Survival” value [3] is reported as 8 days, the “Median Survival” value ([3]; listed as Na(DL-BHB)) is reported as 7.5 days and the “% Survival” value [3] is reported as 20% (2/10). For the same compound, the “% Survival” value ([3]; listed as Na(DL-BHB)) was 20%.
In the case of `O=c1ccn([C@@H]2O[C@H](CO)[C@@H](O)[C@H]2O)c(=O)[nH]1` [Uridine, uridine], the Tmax ([1]; female, CD-1, mouse, plasma, sc, s.c. uridine 200-400 mg/kg with or without Na(D-BHB) 985.1 mg/kg, read-out: Tmax of plasma uridine (and uridine+uracil)) is given as 15 to 30 min, the “Plasma uridine (and uridine+uracil) C max values” ([1]; s.c. uridine 200, 300, 400 mg/kg) is given as “dose-dependent” and the “Local tolerability of infusion into peripheral veins” value ([4]; infusion into accessible peripheral veins) is given as “caused local phlebitis”. For the same compound, the “Dose-limiting toxicity during intravenous infusion” value ([4]; intravenous infusion) was “Hyperthermia was encountered as a dose-limiting toxicity”, the “Median Survival” value ([2]; 3-NP 65 mg/kg/day i.p.) was 9 days and the “% Survival” value ([2]; 3-NP 65 mg/kg/day i.p.) was 30% (3/10). For the same compound, the “Median Survival” value ([2]; 3-NP 70 mg/kg/day i.p.) was 6.5 days, the “% Survival” value ([2]; 3-NP 70 mg/kg/day i.p.) was 10% (1/10) and the “Median Survival” value [3] was 12 days. For the same compound, the “Median Survival” value [5] was 12 days and the “% Survival” value [5] was 40% (4/10).
With “magnesium β-hydroxybutyrate trihydrate [MgBHB]” the “Median Survival” value [5] was 10 days and the “% Survival” value [5] was 20% (2/10).
